How the values were obtained:
[1] = cited from earlier work; for melting temperature of a triple helix: Sakakibara et al. 1973
ARPE19 cells = assay: Adherence of RPE cells to MMP-1-digested (cut) collagen plates treated with CMP; type: cell-based, human; conditions: 100 μM CMP on cut collagen; 19 hours
Experimental: (§1) Plates were then rinsed with culture medium, and ARPE-19 cells were plated uniformly on plates having one of three surface coating conditions: (1) intact collagen; (2) cut collagen; and (3) cut collagen+CMP. Plates were then incubated at 37° C. for 19 hours, and then examined for cell adherence by phase contrast microscopy.

[2] = test system: dorsal root ganglia (DRG) neurons; assay: Neurite outgrowth in dorsal root ganglion neurons on cut collagen plates treated with CMP; type: cell-based, rat; conditions: 100 μM CMP on cut collagen; 48 hours
Experimental: as §1, with “DRG neuronal” for “ARPE-19”, “48” for “19”, “morphology and neurite outgrowth” for “cell adherence”, “inverted brightfield” for “phase contrast”

[3] = test system: corneal epithelium in wounded mouse eyes; assay: In vivo healing of mouse corneal epithelium, wound size by fluorescein staining; conditions: 100 ng/ml EGF, positive control; 16 hours post-treatment
Source text: To examine the possible therapeutic effects of CMPs and CMP-TC conjugates of the invention, studies were designed to test certain CMPs and CMP-TC conjugates in an in vivo setting—the healing of the corneal epithelium in wounded mouse eyes. Female mice (8-week-old C57BL/6; seven mice per sample tested) were anesthetized, and corneas of the mouse eyes were wounded with a 1.5 mm superficial epithelial wound of sufficient depth to expose the anterior stroma thereby damaging and exposing the collagen matrix. […] Following wounding, corneas were treated with 25 nM (about 3 mg/kg) CMPs or CMP-TC conjugates, in aqueous PBS. Negative control mice were treated with vehicle only (PBS), and positive control mice were treated with 100 ng/ml epidermal growth factor (EGF). Wound size at various time points over 48 hours was examined by fluorescein staining (see Carlson et al., id.), and documented via fluorescent photomicrography, and quantified using Image J software (see Rush, J. S. et al., Investig. Ophthalmol. Visual Sci. 57 (14): 5864-5871 (2016); Rush, J. S. et al., Investig. Ophthalmol. Visual Sci. 55 (8): 4691-4699 (2014)).

Substance | melting temperature of a triple helix [1] [°C] | adherence of RPE cells, quantitative, normalized to cut collagen (ARPE19 cells) | other results
(ProHypGly)10 | 58 |  | rate at which chains fold into a triple helix ([1]; relative to (ProProGly)10, Chopra and Ananthanarayanan 1982): substantially greater
(ProProGly)10 | 24 |  | 
Flp-Hyp-Gly-Flp-Hyp-Gly-Flp-Hyp-Gly-Flp-Hyp-Gly-Flp-Hyp-Gly-Flp-Hyp-Gly-Flp-Hyp-Gly [CMP B] |  | significantly increased adhesion | adherence of RPE cells in photomicrographs vs. cut collagen plates (ARPE19 cells): increased adherence
Pro-Flp-Gly-Pro-Flp-Gly-Pro-Cys-Gly-Pro-Flp-Gly-Pro-Flp-Gly-Pro-Flp-Gly-Pro-Flp-Gly [CMP D] |  | significantly increased adhesion | length of the longest neurite normalized to cut collagen [2]: even exceeded that observed with intact collagen
epidermal growth factor [EGF, positive control in the corneal wound model, 100 ng/ml] |  |  | wound healing in mouse cornea and corneal stroma (diameter and intensity of fluorescein fluorescence) [3]: lower level of healing

From patent publication US12419936B2, “Collagen peptide-based medicament compositions and devices and methods of production and use thereof” (SUSTAIN HOLDINGS, LLC, priority 2019, dated 2025)
